According to patent publication US8722649B2, “Alpha-chloro and alpha-bromo phosphonate analogs of lysophosphatidic acid and methods of making and using thereof” (University of Utah Research Foundation, priority 2007, dated 2014):
Entries after “also recorded” stand apart in the source; their conditions may differ.

Legend:
MDA-MB-231 cells = assay: Orthotopic breast cancer xenograft; format: in vivo, nude mice; settings: 3 mg/kg i.p., relative to control group
Procedure: Orthotopic Human Breast Cancer Models. 4-week-old female athymic nude mice (Charles River Laboratories) were anesthetized by intraperitoneal injection of ketamine (80 mg/kg) and xylazine (10 mg/kg),according to the protocol approved by the University of Utah Institutional Animal Care and Use Committee (IACUC). Then the thoracic skin was sterilized with iodine and alcohol swabs.
MDA-MB-231 were trypsinized and resuspended in 2.5% CMHA-S and 3% gelatin-DTPH (v:v=1:1). Then, one volume of 4% PEGDA solution was added to four volumes of the cell suspension, and the resulting suspension was mixed gently by vortexing. The final cell concentration was 5×10^7 cells/ml. When the cell suspension was becoming viscous (ca. 3-5 min at 20° C.), 200 uL of gel was injected subcutaneously into the fourth mammary fat pad of each mouse, using a total of six mice per group.
The assessment of chemotherapy on breast cancer. The mice were randomly divided into 4 groups, including control (physiological saline), paclitaxel, LPA antagonist (19b), and paclitaxel followed by 19b. Six mice for each cell line were necessary to get statistically significant results according to literature. The control group received physiological saline i.p. injection twice per week starting at two weeks after the cell transplantation and ending at two weeks after the treatment. The treatment groups received i.p. administration of paclitaxel (10 mg/kg/day) or 19b (10 mg/kg/day) twice per week with the same period of control group. One additional group included 2 dose of paclitaxel followed by 2 dose of 19b with the same period of control group. The treatment was received […] twice per week for 2 weeks total.
The body weight and tumor size were measured twice per week, and general clinical status of the animals was also assessed every day. Perpendicular tumor diameters were measured using a vernier scale caliper and tumor volume estimated using the formula for ellipsoid: […] (mm^3)=[width(mm)^2×length(mm)]/2. Data are expressed as median tumor areas with interquartile ranges.
Animals were euthanized at 4 weeks postinjection or once any signs of broken skin caused by the extension of tumor are found. Tumors were excised with surrounding tissues for histological evaluation. Analysis of variance was used to analyze the statistical difference on tumor growth between different groups. The results are in FIG. 8, where it is shown that the volume of the tumors is the lowest when mice were treated with paclitaxel followed by the administration of 19b.
Xenograft establishment and chemotherapy. […] The tumor sizes were measured and calculated by formula: tumor size (mm^3)=[width (mm)]^2×[length (mm)]/2. […]

HCT 116 cells = assay: Hepatic colon cancer tumor growth; format: in vivo, nude mice; settings: 10 mg/kg i.p. twice per week
Procedure: Four-week-old female athymic nude mice (Charles River Laboratories, Wilmington, Mass.) were used for colon cell implantation. All animals were maintained in a sterile environment. Cages, bedding, food, and water were all autoclaved. All animals were maintained on a daily 12-hr light/12-hr dark cycle.
Nude mice were anesthetized by intraperitoneal injection of ketamine (80 mg/kg) and xylazine (10 mg/kg) according to the protocol approved by the University of Utah Institutional Animal Care and Use Committee (IACUC).
After anesthesia induction, the aseptic surgical field was sterilized with iodine and alcohol swabs. HCT 116 cells (1×10^6) in 50 μl of the sECM hydrogel Extracel was directly injected into the livers of nude mice after they had been randomly assigned to one of the groups at the beginning of the experiment (8 mice/group).
The control group received physiological saline i.p. injection twice per week starting at one week after the cell transplantation and ended at two weeks after the treatment. The treatment group received i.p. administration of the pure diastereomers 1b at 10 mg/kg twice per week with the same period of control group.
Mice were observed daily. Animals were euthanized at 3 weeks post-injection in a carbon dioxide chamber. Body weights were measured, and the livers were excised. Liver weights and tumor diameters were subsequently determined. Colon tumors were measured using digital calipers. The volume of the cancer was then calculated according to the formula: Cancer Volume (CV)=d2×D/2, where d and D are the shortest and the longest diameters, respectively. After measurement, the tumor tissue was then harvested and placed in 10% formalin for paraffin embedding in preparation for the subsequent histological analyses.

## CCCCCCCCCCCCCCCC(=O)OC[C@@H](O)C[C@@H](Br)P(=O)(O)O [Compound 1a]
MDA-MB-231 cells
  tumor volume, separate diastereomers: significantly decreased the tumor volume; also recorded: reduces tumor size

## CCCCCCCCCCCCCCCC(=O)OC[C@@H](O)C[C@H](Br)P(=O)(O)O [Compound 1b]
MDA-MB-231 cells
  tumor volume, separate diastereomers: significantly decreased the tumor volume; also recorded: reduces tumor size
HCT 116 cells
  hepatic tumor burden (liver weight): marked reduction of hepatic tumor burden; also recorded: significantly reduced tumor burden
  new blood vessels in hepatic colon tumor (H&E): significantly reduced amounts of new blood vessels
HCT 116 cells; vs untreated control
  hepatic tumor size / tumor volume in words: significantly smaller; also recorded: significant decrease in tumor volume; also recorded: smaller than the untreated control
